From US8877264B2, “Composition of skin external application containing ginseng berry extracts” (Amorepacific Corporation, priority 2007, dated 2014)

Legend:
Human normal fibroblasts = experiment: inhibition of oxidative DNA damage, single cell gel electrophoresis (comet assay); type: cell-based; settings: H2O2 10^-3 M; test material 10 ppm
Experimental: Human normal fibroblasts were cultured for 24 hr and treated with varying concentrations of each of the ginseng berry extract of Example 1 and vitamin E. After 12 hr, the cells were treated with the positive control H2O2 (final concentration: 10^−3M), and then stained by electrophoresis. […] Herein, the image analyzer KOMET 3.1 (Kinetic Imaging, England) was used to analyze the tail length (μm) resulting from the digestion of DNA in each of 25 cells, and the analysis results are shown in Table 3 below.

5-alpha-reductase = 5-alpha-reductase activity, testosterone to dihydrotestosterone; type: biochemical, rat; settings: 100 μg extract per reaction
Experimental: Adult SD (Spraque-Dawley) male rats (7-8-week old) were sacrificed with diethyl ether, the abdominal prostate was extracted, and the connective tissue was removed. The prostate tissue was finely cut in buffer (0.32 M sucrose, 0.1 mM dithiothreitol and 20 mM sodium acetate), and was then suspended with a stirrer. The suspension was centrifuged, and the supernatant was collected. 5-alpha-reductase was partially purified from the supernatant in order to the activity thereof.
A portion of the above-collected supernatant was taken and placed in buffer containing 0.2 M monobasic acid and 0.2 M dibasic acid. Then, the solution was allowed to react with a ^3H-bound substrate (testosterone), and the production of the product dihydrotestosterone was measured.
The reaction solution contained 1 mM dithiothreitol, 40 mM sodium phosphate (pH 6.5), 50 μM NADPH, [1,2,6,7-^3H] testosterone/testosterone ([…]), 0.8 mg enzyme suspension and 565 μl protein.
The ginseng berry extract of Example 1 was dissolved in 10% ethanol and added in an amount of 100 μg extract/10 μl 10% ethanol per reaction. […]
The plastic sheet was dried in air, and then a VAS system was used to measure of isotopes. Specifically, the dried plastic sheet together with an X-ray film was placed in a VAS cassette, and after 1 week, the amounts of the testosterone and dihydrotestosterone isotopes remaining on the film were measured.

[1] = tested on: lipogenesis in sebaceous glands; experiment: lipogenesis inhibition in hamster ear tissue (C14 uptake); type: cell-based; settings: 0.01% test material solution, 6 hours, average of 4 hamsters
Experimental: The degree of lipogenesis in sebaceous glands was evaluated by evaluating the inhibition of lipogenesis through the quantification of carbon uptake required for lipogenesis.
Specifically, the ear tissue of hamsters, having abundant sebaceous glands, was biopsied, and the degree of lipogenesis was evaluated by comparatively quantifying the control group and the test materials using a radioactivity meter in C14-labeled media for 6 hours. In the test material groups, the right ear tissue of hamsters was used and 0.01% test material solutions were added to the media, and in the control group, the left ear tissue of hamsters was used and 0.01% saline was added to the media.
Meanwhile, the inhibition (%) in Table 17 was calculated according to the following equation 4 and was expressed as the average of 4 hamsters. […] [Equation 4]

ceramide = experiment: epidermal lipid (total ceramide) in human skin (TLC); type: in vivo; settings: 5 wt % test material, twice every day, non-treated group = 100%
Experimental: In order to evaluate the effect of the ginseng berry extract of Example 1 on an increase in lipid synthesis in human skin, 0.5 wt % of Carbopol ETD 2020, 0.45% of TEA, 5 wt % of the test material and the balance of deionized water were used. On 12 adult men and women, a region corresponding to the diameter of a polypropylene conical tube was marked on the arm, and then was applied with 20 μl of each of control groups and the ginseng berry extract of Example 1 twice every day. The subjects were divided into two groups, and the production of lipid in the applied region was analyzed in the following manner by extracting lipid at day 3 and day 11. Specifically, the arm was washed with service water, and then subjected to tape stripping once with Scotch 810 Magic tape. Then, 1 ml of a mixture of cyclohexane/ethanol (4:1) was added to the tape using a cut 50-ml polypropylene conical tube as a reservoir and stirred for about 1 minute, and then the solution was transferred into a fresh tube. Then, the tape was treated with 1 ml of a mixture of cyclohexane/ethanol (1:1) in the same manner as described above, and the solution was collected in the tube. […]
After the TLC plate was developed, the size of each band was measured at a wavelength of 570 nm using TLC scanner-II (CAMAG; densitometer).

human skin = experiment: whitening effect on UVB-darkened human skin (colorimeter); type: in vivo; settings: UVB-darkened upper arm, 10 weeks of application
[2] = tested on: C57BL/6 mouse melanocytes (Mel-Ab cells); experiment: melanin production inhibition in mouse melanocytes; type: cell-based; settings: positive control, concentration not given

vitamin E
Inhibition of oxidative damage to DNA (Human normal fibroblasts): 38.9% | Tail length (Human normal fibroblasts): 70.6 μm

Cc1cc2nc3c(=O)[nH]c(=O)nc-3n(C[C@H](O)[C@H](O)[C@H](O)CO)c2cc1C [Positive control group, riboflavin]
Conversion: radioactivity in the DHT region/total radioactivity (5-alpha-reductase; 37° C., 30 minutes): 28.7% | Inhibition of 5-alpha-reductase (5-alpha-reductase; vs conversion of control group): 32.4%

CC1=C(/C=C/C(C)=C/C=C/C(C)=C/C(=O)O)C(C)(C)CCC1 [retinoic acid]
Inhibition of lipogenesis [1]: 52%

OCC(O)CO [Glycerin, glycerin]
production of ceramide, After 3 days of treatment (ceramide): 102% | production of ceramide, After 11 days of treatment (ceramide): 94%

Oc1ccc(O)cc1 [Hydroquinone, hydroquinone]
Skin-color brightness (ΔL*) (human skin): 1.90 ± 0.13 | Melanin production inhibition [2]: 41.1%
